Article PMC3662833 (Journal of molecular biology, 2011)

Experiments:
[1] = in words
Unmodified ASL^Lys3UUU = assay: FITC-peptide fluorescence quenching titration with ASL; assay type: binding, human; conditions: in words; for interaction with unmodified ASL^Lys3UUU: FITC-peptide fluorescence quenching
unmodified hASL^Lys3UUU = assay: ESI-MS complex formation; assay type: binding, human; conditions: preliminary, data not shown, in words
ASL^Val3UAC-m^6A37 = assay: FITC-peptide fluorescence quenching titration with ASL; assay type: binding, E. coli; conditions: in words
Peptide structure by CD = assay type: physicochemical; conditions: in words
E. coli ASL^Val3UAC = assay: ESI-MS complex formation; assay type: binding; conditions: peptide in five-fold excess, preliminary, data not shown

## HRGYCRDRWNCGEYF [Peptide P15]
[1]
  solubility: lacked the solubility required of the assay

## AGPVPLHSLSYYYNQ [Peptide P31, reference compound]
Unmodified ASL^Lys3UUU; control used as a baseline, ASL not specified, data not shown
  RNA binding (control peptide): non-RNA binding

## RVTHHAFLGAHRTVG [Peptide P6]
Unmodified ASL^Lys3UUU
  interaction with unmodified ASL^Lys3UUU: little to no interaction
Unmodified hASL^Lys3UUU
  RNA bound by P6: small amounts
ASL^Val3UAC-m^6A37
  binding of ASL^Val3UAC-m^6A37: did not bind
Peptide structure by CD
  structure as determined by CD: lack of structure
E. coli ASL^Val3UAC
  RNA in complex with P6: 50%

## PHRQCSAPAKSCKILP [Peptide P17]
Unmodified ASL^Lys3UUU
  interaction with unmodified ASL^Lys3UUU: little to no interaction
